pIC50: −log10 of the molar value. Read-outs that look alike come from different tables or passages of the source.

One series concerns SKM-1. Nature of the series: CellTiter-Glo cell viability, 72 h, single agents and combination dose matrix. The series is classed as cell-based. As to conditions: single agent. The method, then:
For SKM-1, RPMI (R8758, Sigma Aldrich)+20% FBS (F0804, Sigma Aldrich), heat inactivated at 56° C. for 60 min.
(§1) 75 cm^2 flask (100% confluent) cells was transfer to a 15 ml tube and centrifuged at 1000 RPM for 5 min. Then supernatant was discarded, and cell pellet was resuspended in 6 ml medium. The cells were counted in the TC20 automated cell counter. 10 ml cell culture medium was prepared with 60,000 cells/ml, corresponding to 3,000 cells when 50 μl is seeded out (for MOLM-13, 12,000 cells were used). Cells were seeded in 96-well plates in column 2-12, row B-G, for blank, 100 μL cell culture medium was added. Plates were incubated overnight at 37° C.
(§2) Combenefit 2.021 was used for data analysis.
(§3) The CellTiter-Glo® Luminescent Cell Viability Assay is a homogeneous method of determining the number of viable cells in culture based on quantitation of the ATP present, an indicator of metabolically active cells. The homogeneous assay procedure involves adding the single reagent (CellTiter-Glo® Reagent) directly to cells cultured in serum-supplemented medium. The homogeneous “add-mix-measure” format results in cell lysis and generation of a luminescent signal proportional to the amount of ATP present. The amount of ATP is directly proportional to the number of cells present in culture.
The experimental dose-response surface that delineates combination effects in concentration space, is first read by the Combenefit software as a matrix of % of the control value across concentrations. […] Based on the two single agent dose response curves, a model-based combination dose-response surface is derived. This surface provides a “reference” dose-response surface for a non-synergistic (additive/independent) combination, whose characteristics are determined by the selected model (i.e., Loewe, Bliss or HSA). The experimental combination dose response surface is then compared to the model-generated one, resulting in a synergy distribution in concentration space. […]
A general note: ATP-based viability assays read luminescence as a measure of living cells.

The subject of series [1] is AML cell lines. Nature of the series: CellTiter-Glo cell viability, results summarised over the cell line panel. To be noted: for pIC50: read-out: IC50 values, range over cell lines.
Description: (§7) Plates was taken from the incubator to reach room temperature about 30 min. 100 μL CellTiter-Glo was added to all wells (except edge wells). Plates were then shaken on a plate shaker for 3 minutes at room temperature; thereafter the plates were set for 10 min at room temperature to allow cell lysis to appear. The luminescence was measured using the PerkinElmer Victor×4 instrument using the built-in program according to Instruction 11. Combenefit 2.021 was used for data analysis.
(§8) For IC50 determinations, the serial dilution of compounds was performed in cell culture medium based on 1.5- or 2-fold dilution factor. The serially diluted compounds were added to the cells and incubated for 72 h followed by cell viability test using the CTG assay. For each concentration, the current viability values were calculated and IC50 values were determined by XLfit software version 5.5.0.5 (a Microsoft Excel-based plug-in to perform regression, curve fitting and statistical analysis).
(§9) Combenefit performs combination analyses using the standard Loewe, Bliss and HSA methods. In the HSA model, the synergy score quantifies the excess over the highest single drug response. In the Loewe model, the synergy score quantifies the excess over the expected response if the two drugs are the same compound.
(§10) A “combination index” (CI) is then calculated as the measured cell viability of the sample with two co-incubated substances divided by the predicted cell viability.
(§11) If the measured cell viability for a combination of two substances is higher than the cell viability for one or both substances, the effect is considered antagonistic. If the predicted viability is very low, the quote “measured viability/predicted viability” may give false CI values.
The next series deals with MV4-11. The series is described as follows: CellTiter-Glo cell viability, 72 h, single agents and combination dose matrix. The series is classed as cell-based. As to conditions: Homo sapiens. The method, then:
For MV4-11: IMEM (Sigma Cat. no. I3390), 10% FBS (Sigma Cat. no. F084) and 1% L-glutamine (Sigma, Cat.no. G7513).
as §1, §2, §3
(§4) The experimental dose-response surface that delineates combination effects in concentration space, is first read by the Combenefit software as a matrix of % of the control value across concentrations. […] Based on the two single agent dose response curves, a model-based combination dose-response surface is derived. This surface provides a “reference” dose-response surface for a non-synergistic (additive/independent) combination, whose characteristics are determined by the selected model (i.e., Loewe, Bliss or HSA). The experimental combination dose response surface is then compared to the model-generated one, resulting in a synergy distribution in concentration space.
(§5) This synergy distribution can be further summarized via various metrics (Di Veroli. C, Bioinformatics, 32(18), 2016, 2866-2868) as follows: • SYN_MAX—the maximum level of synergy observed. • SYN_SUM—the sum of synergy observed in concentration logarithmic space. For instance, an integrated synergy of 50 is equivalent to an extra synergistic effect of 50% which is spread over a square of 1 log×1 log in the 2-d log-concentration space.

A further series relates to KG-1. The series is described as above. The format is cell-based. As to conditions: Homo sapiens. The method, then: (§6) For cell lines KBM3, KG-1 and HL-60: IMEM (Sigma Cat. no. I3390), 20% FBS (Sigma Cat. no. F084) and 1% L-glutamine (Sigma, Cat.no. G7513).
as §1, §2, §3, §4, §5

The test system of the next series is HL-60. The series is described as above. The series is classed as cell-based. To be noted: Homo sapiens. The protocol:
as §6, §1, §2, §3, §4, §5

The subject of the next series is KBM-3. The description is as above. The format is cell-based. The method, then: as §6, §1, §2, §3, §4, §5
Another series deals with MOLM-13. Described as above. To be noted: Homo sapiens, MOLM-13, 72 h, single agent. The series is classed as cell-based. The protocol: For MOLM-13, RPMI (R8758, Sigma Aldrich)+10% FBS (F0804, Sigma Aldrich), heat inactivated at 56° C. for 60 min.
as §1, §2, §3, §4, §5

For series [2], the system named is AML cell lines.
Description: as §7, §8, §9, §10, §11
[3] abbreviates: Homo sapiens, SKM-1 (MDS, p53 R248Q).
The mark [4] stands for this setting: MV4-11 (AML, p53 R248W), single agent.
Where [5] appears, read: KG-1 (AML, p53 Intron6/splice), single agent.
Where [6] appears, read: HL-60 (AML, p53 Null (deletion)), single agent.
Setting [7] is: KBM-3 (AML, p53 WT), single agent.
Where [8] appears, read: MOLM-13 (AML, p53 WT), separate study of Example 3.

The pIC50 is the IC50 on a negative log10 scale, so that one unit is a factor of ten. In the case of `CC1(C)CCC(CN2CCN(c3ccc(C(=O)NS(=O)(=O)c4ccc(NCC5CCOCC5)c([N+](=O)[O-])c4)c(Oc4cnc5[nH]ccc5c4)c3)CC2)=C(c2ccc(Cl)cc2)C1` [ABT-199, 2-(1H-pyrrolo[2,3-b]pyridin-5-yloxy)-4-(4-((2-(4-chlorophenyl)-4,4-dimethylcyclohex-1-enyl)methyl)piperazin-1-yl)-N-(3-nitro-4-(((tetrahydro-2H-pyran-4-yl)methyl)amino)phenylsulfonyl)benzamide], the pIC50 in the series with SKM-1 (setting [3]) was 7.15; in the series with AML cell lines [1] (single agent, cell lines of Table 3), 5.82 to 9.00; in the series with MV4-11 (setting [4]), 6.80; with KG-1 (setting [5]) it was 5.82; in the series with HL-60 (setting [6]), 7.22; in the series on KBM-3 (setting [7]), 5.87. Besides, the pIC50 was 9.00 in the series with MOLM-13 (MOLM-13 (AML, p53 WT)) and 8.85 with MOLM-13 (setting [8]). The “single agent anti-proliferative activity” value in the series on AML cell lines [1] is reported as “dose-dependent anti-proliferative activity”. In addition, the “single agent cytotoxic activity” value with AML cell lines [1] (MOLM-13 and SKM-1) was “dose-dependent cytotoxic activity”.

On to `COc1ccccc1-c1nccc(COc2ccccc2CC(Oc2ncnc3sc(-c4ccc(F)cc4)c(-c4ccc(OCCN5CCN(C)CC5)c(Cl)c4C)c23)C(=O)O)n1` (stereo in doubt) [MIK665, (R)-2-((5-(3-chloro-2-methyl-4-(2-(4-methylpiperazin-1-yl)ethoxy)phenyl)-6-(4-fluorophenyl)thieno[2,3-d]pyrimidin-4-yl)oxy)-3-(2-((2-(2-methoxyphenyl)pyrimidin-4-yl)methoxy)phenyl)propanoic acid], for which the “single agent anti-proliferative activity” value with AML cell lines [1] is “dose-dependent anti-proliferative activity”. Moreover, the negative-log IC50 (pIC50) was 6.22 to 9.00 in the series on AML cell lines [1]; 8.85 in the series on MV4-11 (MV4-11, single agent, Example 4); 6.22 with KG-1 (KG-1, single agent, Example 4); 8.15 in the series with HL-60 (HL-60, single agent, Example 4); 7.40 in the series with KBM-3 (KBM-3, single agent, Example 4); 8.70 with MOLM-13 (MOLM-13, Example 4).

For `O=C1C2CCN(CC2)C1CNC(=O)C(F)(F)F` (stereo not drawn) [Compound A, 2,2,2-trifluoro-N-((3-oxoquinuclidin-2-yl)methyl)acetamide], the pIC50 is 6.18 in the series with SKM-1 (SKM-1 (MDS/AML, p53 R248Q homo/hemizygous), separate study of Example 3); 6.00 with MV4-11 (MV4-11, single agent, Example 3); 5.77 in the series with KBM-3 (KBM-3, single agent, Example 3); 5.44 in the series on MOLM-13 (setting [8]). For the same compound, in the series with AML cell lines [2], the “single agent cytotoxic activity” value is given as “dose-dependent cytotoxic activity”.

Take `COCC1(CO)C(=O)C2CCN1CC2` (stereo not drawn) [APR-246, 2-(hydroxymethyl)-2-(methoxymethyl)quinuclidin-3-one]: the pIC50 is 5.96 with SKM-1 (setting [3]); 4.96 to 6.00 with AML cell lines [1]; 5.60 with MV4-11 (setting [4]); 4.96 with KG-1 (setting [5]); 5.09 in the series on HL-60 (setting [6]); 5.43 in the series on KBM-3 (setting [7]). The pIC50 with MOLM-13 (MOLM-13 (AML, p53 WT)) is 5.02. Moreover, the “single agent anti-proliferative activity” value with AML cell lines [1] is listed as “dose-dependent anti-proliferative activity”.

The values above are taken from patent US20220339141A1, “COMBINATION TREATMENT WITH A P53 REACTIVATOR AND AN INHIBITOR OF AN ANTIAPOPTOTIC BCL-2 FAMILY PROTEIN” (Aprea Therapeutics AB, priority 2019, published 2022).
